Data taken from US20190021380A1 (priority 2014, published 2019).
Like-named read-outs stand apart in the source and are kept apart here.

Molecular target: T1R1/T1R3 receptor (Felis catus, UniProt E3UMS2)
Test: cell-based
Type: cell-based
Settings: for Max resp % of Ala +IMP (0.2 mM): relative to Ala; for Max resp ΔF/F +Alanine (20 mM) / Thres (mM) +Alanine (20 mM) / Max resp % of IMP +Alanine (20 mM): in the presence of 20 mM alanine; for Max resp % of IMP +Alanine (20 mM): relative to IMP
Description: HEK293 cells that stably express T1R3 and inducibly express T1R1 were exposed to transmembrane compounds alone or in combination with one or more amino acids and/or one or more nucleotides to activate the umami receptor. Activation of the T1R1/T1R3 receptor was detected by a change in intracellular calcium levels using a calcium sensitive fluorescent dye. Cells that express T1R3 but not T1R1 were used as a control. A FLIPR® Tetra or a FlexStation® 3 was used for data capture.
In each experiment, serial dilutions of up to 10 mM of the transmembrane compound were added to the T1R1/T1R3-expressing cells.

Row | SMILES | Max resp ΔF/F +IMP (0.2 mM) (in the presence of 0.2 mM IMP) | Thres (mM) +IMP (0.2 mM) (in the presence of 0.2 mM IMP) [mM] | Max resp % of Ala +IMP (0.2 mM) (in the presence of 0.2 mM IMP) [%] | Max resp ΔF/F +Alanine (20 mM) | Thres (mM) +Alanine (20 mM) [mM] | Max resp % of IMP +Alanine (20 mM) [%] | EC50 [mM] | EC50 (EC50 (mM) +IMP (0.2 mM), in the presence of 0.2 mM IMP) [mM] | EC50 (compound alone in buffer, read-out: EC50 (mM) +buffer (alone)) [mM] | activation of T1R1/T1R3 by the compound alone (alone, in words)
1 | O=C(Nc1ccccc1Br)N[C@@H]1c2ccccc2C[C@@H]1O (stereo in doubt) [1-(2-bromophenyl)-3-((1R,2S)-2-hydroxy-2,3-dihydro-1H-inden-1-yl)urea] | 0.378 | 3 | 44.9 | 0.3 | 3 | 33.0 | – | – | – | –
2 | COc1ccc(C(=O)NC(C)c2ccccc2)cc1C (stereo not shown) [4-methoxy-3-methyl-N-(1-phenylethyl)benzamide] | 1.1775 | 0.35 | 95.6 | 0.51 | 3 | 41.0 | – | – | – | –
3 | CCCC(C)NC(=O)/C=C/c1ccc(OC)c(OC)c1 (stereo not shown) [(E)-3-(3,4-dimethoxyphenyl)-N-(pentan-2-yl)acrylamide] | 1.07 | 0.55 | 86.9 | 0.4375 | 1 | 35.2 | > 10 | 2.2 | > 10 | –
4 | COc1cc(C(=O)NC(C(N)=O)c2ccccc2)cc(Cl)c1OC (stereo not shown) [N-(2-amino-2-oxo-1-phenylethyl)-3-chloro-4,5-dimethoxybenzamide] | 0.415 | 0.17 | 49.4 | – | – | – | – | – | – | failed to activate T1R1/T1R3 alone
5 | CCC(CC)NC(=O)c1ccc(C)c(C)c1 [3,4-dimethyl-N-(pentan-3-yl)benzamide] | 1.5475 | 0.525 | 125.7 | 1.2150 | 3 | 97.8 | – | – | – | –
6 | O=C(NCCc1ccccc1)C(=O)NCc1cccnc1 [N1-phenethyl-N2-(pyridin-3-ylmethyl)oxalamide] | 0.7625 | 0.1 | 61.9 | 0.3750 | 1 | 30.2 | – | – | – | –
7 | CCC(CC)NC(=O)c1ccc(OC)c(OC)c1 [3,4-dimethoxy-N-(pentan-3-yl)benzamide] | 0.9975 | 0.5 | 81.0 | 0.545 | 0.3 | 43.9 | – | – | – | –
8 | CCC(CC)NC(=O)c1ccc(Br)o1 [5-bromo-N-(pentan-3-yl)furan-2-carboxamide] | 1.8425 | 0.3 | 149.6 | 1.575 | 1 | 126.8 | – | – | – | –
9 | CCCC(C)NC(=O)c1ccc(OC)c(C)c1 (stereo not shown) [4-methoxy-3-methyl-N-(pentan-2-yl)benzamide] | 1.5875 | 0.025 | 128.9 | 1.5650 | 0.050 | 126.0 | – | – | – | –
10 | COC(=O)C(NC(=O)/C=C/c1cccs1)C(C)C (stereo not shown) [(E)-methyl 3-methyl-2-(3-(thiophen-2-yl)acrylamido)butanoate] | 0.7375 | 1 | 59.9 | 0.1175 | 10 | 9.5 | – | – | – | –
11 | CC1CCCC(NC(=O)c2ccc3c(c2)OCO3)C1C (stereo not shown) [N-(2,3-dimethylcyclohexyl)benzo[d][1,3]dioxole-5-carboxamide] | 1.175 | 0.275 | 95.4 | 0.225 | 3 | 18.1 | – | – | – | –
